Where “and” joins values, the source holds several entries; their conditions need not be identical. Equal values may be shown once.
Legend:
[1] = tested on: Cerrena unicolor Laccase (recombinant laccase D); experiment: Laccase bleaching of stonewashed denim legs, laccase dose response, Unimac (Example 11); type: biochemical; conditions: pH 6, 60° C., 30 minutes
Method: Denim, 12 legs weighing approximately 3 kg, was desized in a Unimac UF 50 washing machine under the following conditions: • Desizing for 15 minutes at 10:1 liquor ratio 50° C. with 0.5 g/l (15 g) of Optisize 160 amylase (Genencor) and 0.5 g/l (15 g) of a non-ionic surfactant (e.g. Rucogen BFA, (Rudolf Chemie) or Ultravon GPN, (Huntsman)) • 2 cold rinses for 5 minutes at 30:1 liquor ratio.
Following desizing the denim was stonewashed in a Unimac UF 50 washing machine under the following conditions: • Cold rinse for 5 minutes at 10:1 liquor ratio • Stonewashing for 60 minutes at 10:1 liquor ratio 55° C. with 1 kg of pumice stone, citrate buffer (30 g tri-sodium citrate dihydrate and 30 g citric acid monohydrate) and 35 g IndiAge 2XL cellulase (Genencor). • 2 cold rinses for 5 minutes at 30:1 liquor ratio.
Denim legs were evaluated with a Minolta Chromameter CR 310 in the CIE Lab color space with a D 65 light source. Measurements were done only after laccase treatment. For each denim leg 8 measurements are taken and the result of the 12 legs (96 measurements) was averaged.
Laccase bleaching of stonewashed denim—Denim, 12 legs weighing approximately 3 kg, was desized and stonewashed as described in Example 8. After stonewashing, a laccase treatment was done according to the following process: 30 minutes at 10:1 liquor ratio and pH 6 (21 g monosodium phosphate and 5 g adipic acid) and 60° C. with laccase and mediator. After laccase treatment the denim use rinsed twice in cold water for 5 minutes at 30:1 liquor ratio.

[2] = tested on: C. unicolor laccase; experiment: Stability of mediators in the presence of C. unicolor laccase, LC/MS of supernatant (Example 6); type: physicochemical; conditions: for Initial Peak Area / Final Peak Area: LC/MS; for Initial Peak Area: 1 mM standard solution of mediator; for Final Peak Area: supernatant after denim disk bleaching; for Final Peak Area / % Remaining: 2 hours at 50° C.; for % Remaining: supernatant after contact with laccase and denim
Method: Aliquots of supernatant were analyzed by LC/MS following the denim disk bleaching protocol described in Example 5 in order to determine the final mediator concentrations in the supernatant following the 2 hour incubation period.
Standard solutions of the mediators were prepared by dilution of the methanolic stock solutions (20 mM) into deionized water, such that the final concentrations were 1 mM respectively for each of the three mediators methyl syringate (MS), 4-cyano-2,6-dimethoxyphenol (SN) and, 4-carboxamido-2,6-dimethoxyphenol (SA). Samples were analyzed using a Thermo Finnegan Quantum TSQ LC/MS system (Thermo Finnegan, San Jose, Calif.) operating in positive electrospray ionization mode. The liquid chromatography conditions were as follows: • Column; Agilent Zorbax SB-Aq, 2.1 mm×100 mm, […] silica • Solvent A; 20 mM Ammonium formate, pH 5.0 • Solvent B; 90% Methanol+10% solvent A • Flow rate; 250 uL/min • Injection volume; 5 uL • Elution program; 70% solvent A from 0 to 1 minute, to 30% A from 3 to 4 minutes, back to 70% A at 4.5 minutes, held at 70% A until 8 minutes overall.
The Mass spectrometry conditions were as follows: • Positive mode electrospray ionization (+ve ESI) in full scan mode, scanning from 175 to 240 Da in 0.5 seconds. • Spray voltage was 4200V, sheath gas flow rate 41 mL/min, aux gas flow rate at 15 mL/min. Tube lens voltage was 109V and capillary temperature was 270° C.

[3] = tested on: recombinant laccase D from C. unicolor; experiment: Bleaching of denim swatches with recombinant C. unicolor laccase D (Example 5); type: biochemical; design: key to ΔE (total color difference) Denim swatch Backside / ΔE (total color difference) Denim swatch Frontside: CIE L*a*b* differences, initial minus final; ΔE=(ΔL²+Δa²+Δb²)^1/2
Method: Denim legs (made out of sulfur bottom/indigo dyed denim fabric from Cone Mill, style number 1662P) were pretreated with IndiAge® 2XL at a dose of 1 gram per liter in a 50 lb lab scale tumbling washer. The liquor ratio was 6 to 1 (5 kg substrate in 30 liters of water) and the treatment was performed at 55° C. at pH 4.5 for 1 hour. A warm rinse followed the cellulase treatment, after which the fabric was dried in a tumble dryer. A punch press was used to cut ⅝ inch denim disks from IndiAge® 2XL pretreated denim legs. Each denim disk is pre read with a Chroma Meter CR-200 by Minolta in order to determine the CIE L*a*b* values of both the front and backside of the fabric disk.
One denim disk is placed in each well of two duplicate 12 well micro-titer plates. Each well received C. unicolor laccase (20 uL of 1/20 dilution, approx. 20 ppm), mediator (200, 100, 50 or 20 uL of a 20 mM stock solution in methanol) and 50 mM potassium phosphate buffer, pH 6 for a total volume of 2 mL/well. The mediators were methyl syringate (MS), 4-cyano-2,6-dimethoxyphenol (SN) and 3,4,5-trimethoxyphenol (TMP). The plates were sealed and incubated at 50° C. for 2 hours at 150 rpm in a standard incubator. Following this period, the swatches were removed from the plates and carefully placed on a filter paper in a Buchner funnel and washed with copious amounts of water, followed by drying of the residual water under high vacuum overnight. The swatches were then re-read with the chromometer in order to determine the CIE L*a*b* values of both the front and backside of the disk following bleaching. The total color difference (ΔE) is calculated from the difference between the initial and final CIE L*a*b* values according to the formula ΔE=(ΔL^2+Δa^2+Δb^2)^1/2 The total color differences (ΔE) as a function of mediator concentration are plotted in FIGS. 5 and 6.
A denim swatch bleaching assay was performed as described in Example 16, in this instance, using a recombinant form of the laccase D protein derived from C. unicolor.
Two duplicate 12-well plates were loaded with denim disks. The laccase D stock solution (5.5 ABTS units per mL) was dosed at either 25 or 50 uL per well. The mediators used were methyl syringate (MS), 4-cyano-2,6-dimethoxyphenol (SN) and 4-carboxamido-2,6-dimethoxyphenol (SA) and were used at either 0.5 or 1 mM concentration. The results are depicted in FIGS. 7 and 8.

[4] = mediator 0.5 mM, laccase D stock (5.5 U/mL) 25 uL
[5] = mediator 0.5 mM, laccase D stock (5.5 U/mL) 50 uL
[6] = mediator 1 mM, laccase D stock (5.5 U/mL) 25 uL
[7] = mediator 1 mM, laccase D stock (5.5 U/mL) 50 uL

COc1cc(C(N)=O)cc(OC)c1O [SA, 4-carboxamido-2,6-dimethoxyphenol]
Bleaching level (CIE L) ([1]; Syringamide 0.33 mM, Cerrena unicolor laccase 0.010 g/l): 34.6 | Bleaching level (CIE L) ([1]; Syringamide 0.33 mM, Cerrena unicolor laccase 0.05 g/l): 36.2 | Bleaching level (CIE L) ([1]; Syringamide 0.33 mM, Cerrena unicolor laccase 0.25 g/l): 36.2 | Initial Peak Area [2]: 122 × 10^7 | Final Peak Area [2]: 0.94 × 10^7 | % Remaining [2]: 7.8% | ΔE (total color difference) Denim swatch Backside [3, 4]: 6.69 and 6.39 | ΔE (total color difference) Denim swatch Frontside [3, 4]: 5.07 and 5.70 | ΔL Denim swatch Backside [3, 4]: 4.94 and 4.93 | ΔL Denim swatch Frontside [3, 4]: 4.73 and 5.28 | Δb Denim swatch Backside [3, 4]: 4.51 and 4.05 | Δb Denim swatch Frontside [3, 4]: 1.16 and 1.47 | ΔE (total color difference) Denim swatch Backside [3, 5]: 6.15 and 6.71 | ΔE (total color difference) Denim swatch Frontside [3, 5]: 3.96 and 4.75 | ΔL Denim swatch Backside [3, 5]: 4.64 and 5.25 | ΔL Denim swatch Frontside [3, 5]: 3.66 and 4.46 | Δb Denim swatch Backside [3, 5]: 4.04 and 4.17 | Δb Denim swatch Frontside [3, 5]: 0.87 and 0.88 | ΔE (total color difference) Denim swatch Backside [3, 6]: 8.92 and 8.37 | ΔE (total color difference) Denim swatch Frontside [3, 6]: 7.55 and 7.70 | ΔL Denim swatch Backside [3, 6]: 7.02 and 6.53 | ΔL Denim swatch Frontside [3, 6]: 7.07 and 7.19 | Δb Denim swatch Backside [3, 6]: 5.51 and 5.22 | Δb Denim swatch Frontside [3, 6]: 1.76 and 1.68 | ΔE (total color difference) Denim swatch Backside [3, 7]: 8.72 and 9.16 | ΔE (total color difference) Denim swatch Frontside [3, 7]: 6.72 and 7.93 | ΔL Denim swatch Backside [3, 7]: 6.52 and 6.82 | ΔL Denim swatch Frontside [3, 7]: 6.23 and 7.37 | Δa Denim swatch Backside [3, 7]: 0.15 and 0.10 | Δb Denim swatch Backside [3, 7]: 5.79 and 6.12 | Δb Denim swatch Frontside [3, 7]: 1.73 and 2.11

COc1cc(C#N)cc(OC)c1O [SN, 4-cyano-2,6-dimethoxyphenol]
Bleaching level (CIE L) ([1]; Syringonitrile 0.39 mM, Cerrena unicolor laccase 0.25 g/l): 37.7 | Bleaching level (CIE L) ([1]; Syringonitrile 0.39 mM, Cerrena unicolor laccase 0.4 g/l): 39.5 | Bleaching level (CIE L) ([1]; Syringonitrile 0.39 mM, Cerrena unicolor laccase 0.53 g/l): 38.8 | Initial Peak Area [2]: 35.6 × 10^7 | Final Peak Area [2]: 35.2 × 10^7 | % Remaining [2]: 98.9% | ΔE (total color difference) Denim swatch Backside [3, 4]: 11.62 and 11.54 | ΔE (total color difference) Denim swatch Frontside [3, 4]: 9.98 and 10.48 | ΔL Denim swatch Backside [3, 4]: 9.69 and 9.31 | ΔL Denim swatch Frontside [3, 4]: 9.23 and 9.73 | Δb Denim swatch Backside [3, 4]: 6.41 and 6.81 | Δb Denim swatch Frontside [3, 4]: 3.12 and 3.39 | ΔE (total color difference) Denim swatch Backside [3, 5]: 10.67 and 10.48 | ΔE (total color difference) Denim swatch Frontside [3, 5]: 8.70 and 9.31 | ΔL Denim swatch Backside [3, 5]: 8.87 and 8.45 | ΔL Denim swatch Frontside [3, 5]: 8.20 and 8.67 | Δa Denim swatch Backside [3, 5]: 0.26 and 0.33 | Δb Denim swatch Backside [3, 5]: 5.93 and 6.19 | Δb Denim swatch Frontside [3, 5]: 2.34 and 2.90 | ΔE (total color difference) Denim swatch Backside [3, 6]: 13.85 and 13.07 | ΔE (total color difference) Denim swatch Frontside [3, 6]: 13.24 and 13.88 | ΔL Denim swatch Backside [3, 6]: 11.36 and 10.64 | ΔL Denim swatch Frontside [3, 6]: 12.31 and 12.85 | Δb Denim swatch Backside [3, 6]: 7.93 and 7.59 | Δb Denim swatch Frontside [3, 6]: 4.36 and 4.85 | ΔE (total color difference) Denim swatch Backside [3, 7]: 14.05 and 14.15 | ΔE (total color difference) Denim swatch Frontside [3, 7]: 14.18 and 14.15 | ΔL Denim swatch Backside [3, 7]: 11.25 and 10.98 | ΔL Denim swatch Frontside [3, 7]: 12.98 and 12.85 | Δa Denim swatch Backside [3, 7]: 0.29 and 0.48 | Δb Denim swatch Backside [3, 7]: 8.41 and 8.91 | Δb Denim swatch Frontside [3, 7]: 5.33 and 5.50 | effectiveness as mediator for swatch bleaching ([3]; recombinant laccase D, mediator 0.5 or 1 mM): most effective mediator

From US8282688B2, “Laccase mediators and methods of use” (Danisco US Inc., priority 2006, dated 2012)
